Results taken from US9012402B1, “Gel for topical delivery of NSAIDs to provide relief of musculoskeletal pain and methods for its preparation” (priority 2014, dated 2015).

Tests used:
[1] = cited from earlier work
[2] = topical, average of seven clinical studies; cited from earlier work
[3] = Fraction of drug unionized at a given pH; type: physicochemical

Row | Compound | Log P (octanol: water) [1] | study participants who experienced relief of acute pain [2] | fraction unionized ([3]; at pH 3.5) | fraction unionized ([3]; at pH 6.0) | fraction in the unionized form ([3]; pH of 5 or less) | fraction in unionized form ([3]; pH of 6.5)
1 | CC(C(=O)O)c1cccc(C(=O)c2ccccc2)c1 (stereo not shown) [Ketoprofen, 2-(3-benzoylphenyl)-propionic acid] | 2.68 | 73% |  |  |  | 
2 | O=C(O)Cc1ccccc1Nc1c(Cl)cccc1Cl [diclofenac] |  | 52% |  |  |  | 
3 | CC(C)Cc1ccc(C(C)C(=O)O)cc1 (stereo not shown) [ibuprofen] |  |  | 88.8% | 2.45% | > 20% | 0.79%
